Experimental data reported in PubChem BioAssay (NCI).
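Assay format: 96-well plates, 48-hour exposure. The concentration for 50% growth inhibition is given as GI50. Definition used: TGI = concentration required for complete inhibition of growth.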

Test system: HCT-15 colon
Experiment: NCI tumour cell line growth inhibition, 48 h

For O=C(Nc1cccc(Cl)c1Cl)c1cccc(NC2=C(Cl)C(=O)N(Cc3ccccc3)C2=O)c1, which GI50 is on record?
Its GI50 is 52.1 µM.

What about the TGI of the same compound?
The TGI was greater than 100 µM.

For C#C[C@]1(O)CC[C@H]2[C@@H]3CC=C4c5sc(Nc6ccccc6)nc5CC[C@]4(C)[C@H]3CC[C@@]21C, which GI50 is on record?
Its GI50 is 1.69 µM.

And the TGI?
The TGI was 6.47 µM.

Which results are given for COc1cc(NC(C)CCCN)c2nccc(C)c2c1OC (configuration not stated)?
GI50: 11.5 µM; TGI: 24.5 µM

Which TGI does the source give for CSC1(CC(=O)N(C)C)C(=O)Nc2ccccc21 (configuration not stated) here?
Its TGI is greater than 100 µM.

COc1cc2c(cc1OC)C13CCN4CC5=CCOC6CC(=O)N2C1C6C5CC43O (configuration not stated) was tested. Which TGI did it give?
The TGI was greater than 100 µM.

How did the TGI turn out when O/N=C\c1c(O)ccc2ccccc12 was run?
The TGI was greater than 100 µM.

Which results are given for Cc1n(Cc2ccc3ccccc3c2)cc[n+]1Cc1ccc2ccccc2c1?
GI50: 11.3 µM; TGI: 25.1 µM

For Cc1c(C2Nc3ccccc3C2C)[nH]c2ccccc12 (configuration not stated), which GI50 is on record?
Its GI50 is 0.297 µM.

And the TGI?
The TGI was 25.9 µM.

For O=C(CCC(=O)Nc1cccc(Cl)c1)CC(=O)c1ccc(Cl)cc1, which TGI is on record?
Its TGI is greater than 100 µM.

Which TGI does the source give for O=C(O)c1ccccc1-c1ccccc1C(=O)Nc1ccc2c(c1)Cc1cc(F)ccc1-2 here?
Its TGI is 38 µM.

What does the source list for Cc1[nH]n(-c2cccc(Cl)c2)c(=O)c1/C=C1\C=Nc2ccc(Br)cc21?
GI50: 5.25 µM; TGI: > 100 µM

Which GI50 does the source give for CC(=O)Oc1ccccc1C(=O)N=C1[Se]CCCN1C(=O)c1ccccc1OC(C)=O here?
Its GI50 is 2.53 µM.

And the TGI?
The TGI was 7.28 µM.

How did the GI50 turn out when CCN(CC)CCNCC(=O)Oc1ccc(/C=C/C(=O)CC(=O)/C=C/c2ccc(OC(=O)CNCCN(CC)CC)c(OC)c2)cc1OC was run?
Its GI50 is 3.68 µM.

And the TGI?
The TGI was 15.3 µM.

O=C(O)Cc1c(O)ccc2ccccc12 was tested. Which TGI did it give?
The TGI was greater than 100 µM.

How did the GI50 turn out when CC(=O)O[C@@H]1C[C@]2(C(C)C)O[C@@]1(C)[C@@H]1CCC(C)=C1[C@@H]2OC(=O)/C=C/c1ccccc1 was run?
Its GI50 is 32.7 µM.

And the TGI?
The TGI was greater than 100 µM.

Which TGI does the source give for O=C(CSc1nnc(-c2ccccc2NC(=O)C(F)(F)F)c(=O)[nH]1)NC(=O)Nc1ccccc1 here?
Its TGI is greater than 100 µM.

How did the TGI turn out when COc1ccc(C(=O)C(CO)Oc2ccccc2OC)cc1OC (configuration not stated) was run?
Its TGI is greater than 100 µM.

Test system: HL-60(TB) leukemia
Experiment: NCI tumour cell line growth inhibition, 48 h

What does the source list for Nc1c(C(=O)N/N=C/c2ccc(-c3ccc(Cl)cc3)o2)cnn1-c1ccnc2c(C(F)(F)F)cccc12?
GI50: > 100 µM; TGI: > 100 µM

CCCCCc1c(C)[nH]c(/C=C2\N=C(c3ccc[nH]3)C=C2CC)c1C was tested. Which GI50 did it give?
Its GI50 is 0.0151 µM.

What about the TGI of the same compound?
The TGI was 0.0814 µM.

How did the GI50 turn out when Cc1c[n+](Cc2ccc3ccccc3c2)cn1Cc1ccc2ccccc2c1 was run?
The GI50 was 0.514 µM.

What about the TGI of the same compound?
The TGI was 2.34 µM.

Which results are given for COc1cc(/C=C2\C(=O)Nc3ccc(F)cc32)cc(OC)c1OC?
GI50: 8.39 µM; TGI: > 100 µM

Which TGI does the source give for COc1ccccc1NC(=O)C1=C(C)NC(C)=C(C(=O)Nc2ccccc2OC)C1c1ccc([N+](=O)[O-])cc1 here?
The TGI was greater than 100 µM.

With O=C(Nc1cccc(Cl)c1Cl)c1cccc(NC2=C(Cl)C(=O)N(Cc3ccccc3)C2=O)c1 as the compound, how does the GI50 read?
Its GI50 is 10.5 µM.

And the TGI?
Its TGI is 30.7 µM.

Which GI50 does the source give for COc1cc(NC(C)CCCN)c2nccc(C)c2c1OC (configuration not stated) here?
The GI50 was 4.56 µM.

And the TGI?
Its TGI is 16.8 µM.

For COc1cc2c(cc1OC)C13CCN4CC5=CCOC6CC(=O)N2C1C6C5CC43O (configuration not stated), which TGI is on record?
Its TGI is greater than 100 µM.

With O/N=C\c1c(O)ccc2ccccc12 as the compound, how does the TGI read?
Its TGI is 54.9 µM.

With Cc1n(Cc2ccc3ccccc3c2)cc[n+]1Cc1ccc2ccccc2c1 as the compound, how does the GI50 read?
The GI50 was 0.427 µM.

What about the TGI of the same compound?
The TGI was 2.01 µM.

Cc1c(C2Nc3ccccc3C2C)[nH]c2ccccc12 (configuration not stated) was tested. Which GI50 did it give?
Its GI50 is 13.1 µM.

What about the TGI of the same compound?
Its TGI is 38.3 µM.

How did the TGI turn out when O=C(CCC(=O)Nc1cccc(Cl)c1)CC(=O)c1ccc(Cl)cc1 was run?
The TGI was greater than 100 µM.

With Cc1[nH]n(-c2cccc(Cl)c2)c(=O)c1/C=C1\C=Nc2ccc(Br)cc21 as the compound, how does the GI50 read?
The GI50 was 4.02 µM.

And the TGI?
Its TGI is 33.6 µM.

For CC(=O)Oc1ccccc1C(=O)N=C1[Se]CCCN1C(=O)c1ccccc1OC(C)=O, which GI50 is on record?
The GI50 was 2.14 µM.

What about the TGI of the same compound?
Its TGI is 5.63 µM.

How did the GI50 turn out when CCN(CC)CCNCC(=O)Oc1ccc(/C=C/C(=O)CC(=O)/C=C/c2ccc(OC(=O)CNCCN(CC)CC)c(OC)c2)cc1OC was run?
Its GI50 is 3.39 µM.

What about the TGI of the same compound?
The TGI was 91.8 µM.

With CC(=O)O[C@@H]1C[C@]2(C(C)C)O[C@@]1(C)[C@@H]1CCC(C)=C1[C@@H]2OC(=O)/C=C/c1ccccc1 as the compound, how does the GI50 read?
Its GI50 is 25.1 µM.

What about the TGI of the same compound?
Its TGI is greater than 100 µM.

With O=C1c2ccn(CCCCNC(CO)(CO)CO)c2C(=O)c2c1c(O)c1ccccc1c2O as the compound, how does the GI50 read?
Its GI50 is 2.56 µM.

What about the TGI of the same compound?
Its TGI is 21 µM.

COc1ccc(C(=O)C(CO)Oc2ccccc2OC)cc1OC (configuration not stated) was tested. Which TGI did it give?
The TGI was greater than 100 µM.

Test system: HOP-92 NSCLC
Experiment: NCI tumour cell line growth inhibition, 48 h

For Nc1c(C(=O)N/N=C/c2ccc(-c3ccc(Cl)cc3)o2)cnn1-c1ccnc2c(C(F)(F)F)cccc12, which GI50 is on record?
The GI50 was 50.7 µM.

And the TGI?
Its TGI is greater than 100 µM.

Which results are given for CCCCCc1c(C)[nH]c(/C=C2\N=C(c3ccc[nH]3)C=C2CC)c1C?
GI50: < 0.013 µM; TGI: 0.0426 µM

Cc1c[n+](Cc2ccc3ccccc3c2)cn1Cc1ccc2ccccc2c1 was tested. Which GI50 did it give?
Its GI50 is 0.448 µM.

What about the TGI of the same compound?
The TGI was 2.02 µM.

With COc1cc(/C=C2\C(=O)Nc3ccc(F)cc32)cc(OC)c1OC as the compound, how does the GI50 read?
Its GI50 is 5.07 µM.

What about the TGI of the same compound?
The TGI was 42.8 µM.

With COC(COC(=O)N1CCN(C=O)CC1)C1=C(N2CC2)C(=O)C(C)=C(N2CC2)C1=O (configuration not stated) as the compound, how does the TGI read?
The TGI was 0.919 µM.

With C#C[C@]1(O)CC[C@H]2[C@@H]3CC=C4c5sc(Nc6ccccc6)nc5CC[C@]4(C)[C@H]3CC[C@@]21C as the compound, how does the GI50 read?
The GI50 was 3.81 µM.

What about the TGI of the same compound?
Its TGI is 29.7 µM.

With COc1cc2c(cc1OC)C13CCN4CC5=CCOC6CC(=O)N2C1C6C5CC43O (configuration not stated) as the compound, how does the TGI read?
The TGI was greater than 100 µM.

How did the TGI turn out when O/N=C\c1c(O)ccc2ccccc12 was run?
Its TGI is greater than 100 µM.

How did the GI50 turn out when Cc1n(Cc2ccc3ccccc3c2)cc[n+]1Cc1ccc2ccccc2c1 was run?
The GI50 was 0.673 µM.

What about the TGI of the same compound?
The TGI was 3.64 µM.

With O=C(CCC(=O)Nc1cccc(Cl)c1)CC(=O)c1ccc(Cl)cc1 as the compound, how does the TGI read?
Its TGI is greater than 100 µM.

O=C(O)c1ccccc1-c1ccccc1C(=O)Nc1ccc2c(c1)Cc1cc(F)ccc1-2 was tested. Which TGI did it give?
Its TGI is greater than 100 µM.

What does the source list for CCN(CC)CCNCC(=O)Oc1ccc(/C=C/C(=O)CC(=O)/C=C/c2ccc(OC(=O)CNCCN(CC)CC)c(OC)c2)cc1OC?
GI50: 3.93 µM; TGI: 33.1 µM

Which TGI does the source give for O=C(O)Cc1c(O)ccc2ccccc12 here?
The TGI was greater than 100 µM.

How did the TGI turn out when O=C(CSc1nnc(-c2ccccc2NC(=O)C(F)(F)F)c(=O)[nH]1)NC(=O)Nc1ccccc1 was run?
Its TGI is greater than 100 µM.

What does the source list for O=C1c2ccn(CCCCNC(CO)(CO)CO)c2C(=O)c2c1c(O)c1ccccc1c2O?
GI50: 1.89 µM; TGI: 19.6 µM

Test system: K-562 leukemia
Experiment: NCI tumour cell line growth inhibition, 48 h

For Nc1c(C(=O)N/N=C/c2ccc(-c3ccc(Cl)cc3)o2)cnn1-c1ccnc2c(C(F)(F)F)cccc12, which GI50 is on record?
Its GI50 is 97.7 µM.

What about the TGI of the same compound?
The TGI was greater than 100 µM.
